Experimental data taken from patent US12433903B2 (priority 2021, dated 2025).
“Also recorded” adds a separate entry of the source. Read-outs that look alike come from different tables or passages of the source.

Tests used:
[1] = PK and Tmax after intraperitoneal administration; format: in vivo; details: male C57BL/6 mice; for Tmax: mouse, in vivo
Text: The purpose of this study was to determine the pharmacokinetics and time of maximum plasma (Tmax) of the test articles (TA) CBD and Compound 3 following intraperitoneal (IP) administration to male C57BL/6 mice. This method of TA delivery, dose and mouse strain was to be used in a subsequent Pentylenetetrazol (PTZ) induced seizure model for the evaluation of the TA's for anti-epileptic activity.

PTZ-induced seizure = experiment: PTZ-induced epilepsy (seizure) mouse model; format: in vivo; details: 100 mg/kg IP, CBD 60 minutes, Compound 3 30 minutes prior to PTZ 80 mg/kg; for Survival Effects: mortality rate compared to the vehicle/PTZ group: 30 minute observation
Text: Mouse models using GABAa receptor antagonist Pentylenetetrazol (PTZ) are well defined and used as a standard for the identification of potential anticonvulsants to treat generalized clonic seizures (Loscher et al., 1991 Epilepsy Res 8:171-189). The purpose of this study was to evaluate and compare CBD to test article Compound 3, on their therapeutic effects in a mouse model of PTZ-induced seizure. To match up test article plasma concentration time max (Tmax) with the PTZ induced seizures; test articles were administered at 60 minutes and 30 minutes prior to PTZ administration respectively. Vehicle used for treatment groups was 10% EtOH/10% Tween 80/80% Saline.
Mice were acclimated to the procedure room for at least 30 minutes. Pentylenetetrazole (PTZ; Sigma Aldrich) was formulated in water to a concentration of 16 mg/mL. Injections of PTZ were made at a volume of 5 mL/kg to produce a final dose of 80 mg/kg.
A 30-minute maximum latency to seizure was imposed. • Clinical behavior was scored using the following adapted Racine scale: • Score 0, no seizures observed • Score 1, Behavioral arrest (freezing, fixed gaze, staring), vibrissae twitching, mouth or facial clonus • Score 2, Pop or jump, straub tail, foot splay, head nodding • Score 3, Forelimb clonus, extended forelimbs, multiple pops or jerks • Score 4, Rearing and bilateral forelimb clonus, Running and running/bouncing • Score 5, All limb clonus, rearing and falling (stay fallen on rear side) • Score 6, Tonic hindlimb extensions, cardiac arrest
Behavior was scored by an observer blind to treatment. The highest score reached during every 5 minute period during the 30 minutes after PTZ was administered was recorded. Additionally, the percent tonic-clonic (number of animals progressing to the highest seizure score), and percent mortality was also calculated.

[2] = PK study after oral (PO) or intraperitoneal (IP) administration; format: in vivo, male Sprague Dawley rats; details: CBG 30 mg/kg PO or IP; Compound 1 31.5 mg/kg PO; Compound 2 32.7 mg/kg PO
Experimental: This study evaluated the pharmacokinetics of (E)-2-(3,7-dimethylocta-2,6-dien-1-yl)-3-methoxy-5-pentylphenol (1) and (E)-2-(3,7-dimethylocta-2,6-dien-1-yl)-1,3-dimethoxy-5-pentylbenzene (2) following oral (PO) or intraperitoneal (IP) administration to male Sprague Dawley rats.
For the oral formulation the test article was added to the appropriate amount of Maisine and stirred until uniform. Next Labrasol was added to the formulation and allowed to stir until uniform. Finally, water will be slowly added to the stirring formulation to achieve the final volume.
For the IP formulation the test article was added to the appropriate amount of ethanol and stirred until uniform. Next, the appropriate amount of tween-20 was added to the stirred formulation. Finally, the appropriate amount of saline was slowly added to the stirred formulation to achieve the final volume.
Animals were fasted the evening prior to dosing with food returned at 4 h postdose, and the animals weighed on the morning of dose administration.
IP doses were administered via injection to the intraperitoneal region. PO doses were delivered into the stomach via syringe and gavage tube.
Blood was collected from via direct jugular stick or from the tail vein. Blood samples were kept on ice until being centrifuged at 3200 RPM for 10 minutes at ˜5° C. within 1 h of collection. Plasma was split into 2 cryovials in approximately equal volumes (0.05 mLs) and stored at −20° C.±5° C. until shipment.

[3] = test system: indomethacin induced intestinal injury; experiment: Indomethacin-induced Crohn's disease in rats; format: in vivo
Experimental: The objective of this study was to determine the efficacy of Compound 1 and Compound 2 in a model of Crohn's disease (indomethacin induced intestinal injury) in rats.
The study design was identical for Compound 1 and Compound 2. On study day -3, rats were weighed and distributed into treatment groups based on body weight.
On study day 0, treatment was initiated and continue as indicated in the Study Design Tables below. Groups 2-6 received a subcutaneous injection of indomethacin (9 mg/kg, 1 ml/kg) in 5% sodium bicarbonate (Sterile Water). On study day 1, Groups 2-6 received a second subcutaneous injection of indomethacin (8 mg/kg, 1 ml/kg) in 5% sodium bicarbonate (Sterile Water). Live phase sample & data collection specifics are outlined below. On study day 4, animals will be euthanized, a section of the small intestine will be removed and weighed. Further necropsy sample and data collection is specified below. Overall efficacy of test articles will be based on body weight, small intestine weight (10 cm), small intestine gross score, and histopathology
At necropsy, the small intestines were evaluated visually and given a gross score according to the following criteria: 0=Normal. 0.5=Very Minimal thickening, multifocal in area at risk. 1=Minimal thickening, fairly diffuse in area at risk. 2=Mild to moderate small intestinal/mesenteric thickening throughout area at risk. 3=Moderate thickening with 1 or more definite adhesions that would be easy to separate. 4=Marked thickening with numerous hard to separate adhesions. 5=Severe intestinal lesion resulting in death.
Preserved 9-cm sections of small intestine were trimmed into 6 transverse sections collected at approximately equal intervals along the […] of the intestine, without bias toward lesion presence or absence. These trimmed sections were processed through graded alcohols and a clearing agent, infiltrated and embedded in paraffin, sectioned, and stained with hematoxylin and eosin (H&E).
Small intestine sections from all animals were examined microscopically by a board-certified veterinary pathologist, and observations were entered into a computer-assisted data retrieval system. Cross sections of small intestine were scored for inflammation and necrosis using the following criteria:
The area at risk for development of this lesion is generally approximately 30% of the total area of a cross section of small intestine where the mesentery attaches.
Inflammation is localized to the mesentery and intestinal area at risk for necrosis with slight extension on either side of it. […] In this case, inflammation is scored based on overall severity ranging from 0.5 (very minimal) to 5 (severe) without regard for the extent of necrosis. The mean score for necrosis and inflammation was calculated for each animal and these mean scores were then summed to arrive at a total score. Each section also has a measurement of total width of mucosal necrosis.

[4] = test system: lipopolysaccharide (LPS)-induced inflammation; experiment: Anti-inflammatory activity in a rat LPS model (serum cytokines); format: in vivo, Sprague Dawley rats; details: PO QD x 4, LPS 5 mg/kg IP, 2 h after LPS
Experimental: This assay was employed to determine the efficacies of CBG, compound 1, and compound 2 against lipopolysaccharide (LPS)-induced inflammation in Sprague Dawley rats.
Eight- to 10-week-old male rats were treated with CBG, Compound 1, and Compound 2, or a positive control (cyclosporin A) for four days prior to treatment with LPS. Twenty-eight (28) Sprague Dawley male rats, 8-10 weeks old, were used for this study. Animals were randomized by weight into one of 7 treatment groups as shown in Table 10 below and treated for 4 days with either vehicle control (Groups 1 and 2), Cyclosporin A (Neoral) (Group 3), CBG at 30 mg/kg (Group 4), Compound 1 at 31.5 mg/kg (Group 5), Compound 2 at 32.7 mg/kg (Group 6) or CBG at 30 mg/kg (intraperitoneal/IP; Group 7). Groups 1-6 were dosed for 4 days by oral gavage; group 7 was dosed for 4 days by IP injection. After the 4th injection, Groups 2-7 received a single IP injection of LPS at 5 mg/kg to induce inflammation. Body weight was recorded every other day starting on the day of or day prior to the first day of treatment. A terminal body weight was recorded. General health and clinical signs were recorded once daily. Blood was collected to isolate immune cells at 2 hours after the LPS injection. […]
Serum samples (N=82) were processed and shipped to Inotiv Boulder for analysis. […] The samples were analyzed for cytokine levels using the RECYTMAG-65K Luminex™ kit. […]

SMILES: C=C(C)[C@@H]1CCC(C)=C[C@H]1c1c(O)cc(CCCCC)cc1O [CBD, cannabidiol]
- Tmax ([1]; 100 mg/kg, IP): 60 min
- Latency to Clonic Seizure Event compared to PTZ alone (PTZ-induced seizure): did not yield a significantly different latency
- Latency to First Seizure Event compared to PTZ alone (PTZ-induced seizure): did not result in a difference in latency to first seizure
- Latency to Tonic Seizure Event compared to PTZ alone (PTZ-induced seizure): did not yield a significantly different latency
- Percent of animals reaching Tonic-clonic Stage 6 compared to PTZ alone (PTZ-induced seizure): did not yield a significantly difference in proportion; also recorded: did not yield a significant difference in proportion
- Racine scores over 5 minute intervals for 30 minutes compared to PTZ alone (PTZ-induced seizure): did not yield a significant change in clinical score
- Survival Effects: mortality rate compared to the vehicle/PTZ group (PTZ-induced seizure): did not yield a significantly reduced mortality rate

SMILES: CCCCCc1cc(OC)c(C/C=C(\C)CCC=C(C)C)c(OC)c1 [Compound 2, (E)-2-(3,7-dimethylocta-2,6-dien-1-yl)-1,3-dimethoxy-5-pentylbenzene]
- glucuronidation / glucuronide formation in plasma (in words) [2]: completely blocked glucuronide formation
- small intestine gross score compared to vehicle ([3]; Group 4 (Compound 1: 50 mg/kg PO)): trend in lower small intestine gross score
- reduction of necrosis width, of vehicle ([3]; Group 5): 99%
- histopathology scores vs vehicle and dexamethasone ([3]; Group 5 & 6): significantly lower
- necrosis width vs vehicle and dexamethasone ([3]; Group 5 & 6): significantly lower
- reduction of necrosis width, of vehicle ([3]; Group 6): 96%
- Histopathology scores vs vehicle (Group 2) ([3]; Groups 4-6): lower than the vehicle
- necrosis width vs vehicle (Group 2) ([3]; Groups 4-6): lower than the vehicle
- small intestine gross score compared to vehicle ([3]; Groups 5-6 (Compound 1: 200 and 800 mg/kg PO)): significant reductions in gross score
- small intestine weight compared to vehicle ([3]; all three treatment groups (Groups 4-6), PO days 0-3): significantly lower
- body weight change from Study Day -3 (preventing weight loss) ([3]; all treatment groups (Groups 4-6), PO days 0-3, in comparison to dexamethasone (Compound 2: and vehicle)): all trended towards or had significant differences in preventing weight loss
- reduction of IL-1B and IFNy, performance relative to CBG [4]: equal to or better than CBG

SMILES: C=C(C)[C@@H]1CCC(C)=C[C@H]1c1c(O)cc(CCCCC)cc1OC [Compound 3, (1′R,2′R)-6-methoxy-5′-methyl-4-pentyl-2′-(prop-1-en-2-yl)-1′,2′,3′,4′-tetrahydro-[1,1′-biphenyl]-2-ol]
- Cmax, fold greater than CBD ([1]; IP): 8 fold
- plasma PK Area Under the Curve (AUC), fold greater than CBD ([1]; IP): over 4 fold
- Tmax ([1]; plasma, 100 mg/kg IP, read-out: TMax (converted)): 30 min
- reduction of IL-1B and IFNy, performance relative to CBG [4]: equal to or better than CBG
- Latency to Clonic Seizure Event compared to PTZ alone (PTZ-induced seizure): did not yield a significantly different latency; also recorded: strong trend toward longer latency
- Latency to First Seizure Event compared to PTZ alone (PTZ-induced seizure): trended towards a longer latency
- Latency to Tonic Seizure Event compared to PTZ alone (PTZ-induced seizure): significantly longer latency
- Percent of animals reaching Tonic-clonic Stage 6 compared to PTZ alone (PTZ-induced seizure): significantly lower proportion
- Racine scores over 5 minute intervals for 30 minutes compared to PTZ alone (PTZ-induced seizure): significant improvement in Racine scores
- Survival Effects: mortality rate compared to the vehicle/PTZ group (PTZ-induced seizure): significantly reduced mortality rate
